# Experimental data as given in patent publication US12643910B2, “Substituted pyrazolo[3,4-b]pyridines as ectonucleotide pyrophosphatase/phosphodiesterase 1 (ENPP1) modulators” (SANFORD BURNHAM PREBYS MEDICAL DISCOVERY INSTITUTE, priority 2019, dated 2026).
# Columns and labels:
# human ENPP1 = target: T1, human ENPP1 (Homo sapiens, UniProt P22413); assay: ENPP1 assay with ATP substrate (Transcreener AMP2/GMP2 TR-FRET); type: biochemical; conditions: 1 hour at room temperature
# T1 construct: made in house
# T1 sequence (P22413 1-925): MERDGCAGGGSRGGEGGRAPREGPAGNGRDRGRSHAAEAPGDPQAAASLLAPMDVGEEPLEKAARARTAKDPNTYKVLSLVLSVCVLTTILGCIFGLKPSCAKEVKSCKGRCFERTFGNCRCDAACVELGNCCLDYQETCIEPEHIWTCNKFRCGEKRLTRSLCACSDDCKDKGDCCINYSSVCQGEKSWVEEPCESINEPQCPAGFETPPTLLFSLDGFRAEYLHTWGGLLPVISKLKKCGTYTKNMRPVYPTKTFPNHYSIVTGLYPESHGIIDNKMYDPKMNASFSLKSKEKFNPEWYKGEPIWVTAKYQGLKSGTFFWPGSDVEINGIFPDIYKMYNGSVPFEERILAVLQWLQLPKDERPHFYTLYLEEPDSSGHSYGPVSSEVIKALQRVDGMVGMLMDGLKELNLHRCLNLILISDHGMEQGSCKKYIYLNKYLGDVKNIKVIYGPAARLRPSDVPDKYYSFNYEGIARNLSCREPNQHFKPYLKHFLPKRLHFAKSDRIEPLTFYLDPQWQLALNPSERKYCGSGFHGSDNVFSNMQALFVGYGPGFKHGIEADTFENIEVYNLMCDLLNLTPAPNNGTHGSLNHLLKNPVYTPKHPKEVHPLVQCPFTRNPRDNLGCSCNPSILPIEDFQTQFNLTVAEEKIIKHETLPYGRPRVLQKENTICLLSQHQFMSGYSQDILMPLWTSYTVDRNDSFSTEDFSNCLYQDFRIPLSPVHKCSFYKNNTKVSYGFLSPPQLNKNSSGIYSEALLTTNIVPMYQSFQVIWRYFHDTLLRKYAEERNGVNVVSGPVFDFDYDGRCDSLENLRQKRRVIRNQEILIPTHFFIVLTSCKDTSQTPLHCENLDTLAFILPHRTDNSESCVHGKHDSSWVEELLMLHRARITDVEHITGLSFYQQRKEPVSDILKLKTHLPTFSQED
# Summary of the method: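 5′-AMP from ATP hydrolysis (300 nM ATP stock added; enzyme added as 8.5 μM stock) detected by competitive TR-FRET. Buffer: 50 mM Tris pH 7.5, 1 mM TCEP, 2 mM MgCl2, 0.005% Tween 20, 1% DMSO. Reaction 1 h at room temperature, EDTA stop. IC50 from 2-parameter variable-slope fit.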
# ENPP3 = target: T2, ENPP3 (Homo sapiens, UniProt O14638); assay: ENPP3 Km ATP assay; type: biochemical; conditions: ATP at Km
# T2 sequence (O14638 1-875): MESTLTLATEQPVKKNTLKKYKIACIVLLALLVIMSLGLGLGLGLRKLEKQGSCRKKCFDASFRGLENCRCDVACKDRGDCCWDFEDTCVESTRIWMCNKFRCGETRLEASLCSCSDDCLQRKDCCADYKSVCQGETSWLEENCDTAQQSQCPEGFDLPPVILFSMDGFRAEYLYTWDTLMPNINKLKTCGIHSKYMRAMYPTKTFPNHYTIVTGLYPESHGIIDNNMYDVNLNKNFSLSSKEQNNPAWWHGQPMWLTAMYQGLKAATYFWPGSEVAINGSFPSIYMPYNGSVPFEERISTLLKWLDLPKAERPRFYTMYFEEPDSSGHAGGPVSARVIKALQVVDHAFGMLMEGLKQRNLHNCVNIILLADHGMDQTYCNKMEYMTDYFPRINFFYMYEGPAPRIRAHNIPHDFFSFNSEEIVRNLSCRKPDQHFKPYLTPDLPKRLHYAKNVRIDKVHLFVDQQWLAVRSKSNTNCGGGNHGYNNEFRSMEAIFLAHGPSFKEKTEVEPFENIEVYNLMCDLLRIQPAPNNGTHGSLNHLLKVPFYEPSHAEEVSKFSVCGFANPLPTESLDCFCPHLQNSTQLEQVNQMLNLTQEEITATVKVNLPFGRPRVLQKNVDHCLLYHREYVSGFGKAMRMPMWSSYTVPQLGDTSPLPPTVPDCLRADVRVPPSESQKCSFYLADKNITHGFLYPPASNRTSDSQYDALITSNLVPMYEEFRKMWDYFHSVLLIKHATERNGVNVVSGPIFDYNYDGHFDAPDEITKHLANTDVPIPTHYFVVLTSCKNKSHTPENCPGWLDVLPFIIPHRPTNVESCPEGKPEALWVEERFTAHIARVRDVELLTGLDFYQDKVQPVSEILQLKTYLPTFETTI
Compound,IC50 (human ENPP1) [µM],IC50 (ENPP3) [µM]
"Cc1csc2c(N3CCC(NCCCc4ccccc4F)CC3)ncnc12 [Example 3.33, N-(3-(2-Fluorophenyl)propyl)-1-(7-methylthieno[3,2-d]pyrimidin-4-yl)piperidin-4-amine]",0.1 to 1,> 20
"Cc1cnccc1CCC(=O)NC1CCN(c2ncnc3c(C)csc23)CC1 [Example 3.34, 3-(3-Methylpyridin-4-yl)-N-(1-(7-methylthieno[3,2-d]pyrimidin-4-yl)piperidin-4-yl)propanamide]",> 20,> 20
"Cc1cnccc1CCCNC1CCN(c2ncnc3c(C)csc23)CC1 [Example 3.35, N-(3-(3-Methylpyridin-4-yl)propyl)-1-(7-methylthieno[3,2-d]pyrimidin-4-yl)piperidin-4-amine]",0.1 to 1,> 20
"Cc1csc2c(N3CCC(NC(=O)CCc4ccnc(F)c4)CC3)ncnc12 [Example 3.36, 3-(2-Fluoropyridin-4-yl)-N-(1-(7-methylthieno[3,2-d]pyrimidin-4-yl)piperidin-4-yl)propanamide]",1 to 20,> 20
"Cc1csc2c(N3CCC(NCCCc4ccnc(F)c4)CC3)ncnc12 [Example 3.37, N-(3-(2-Fluoropyridin-4-yl)propyl)-1-(7-methylthieno[3,2-d]pyrimidin-4-yl)piperidin-4-amine]",0.1 to 1,> 20
"Cc1csc2c(N3CCC(NC(=O)CCc4ccncc4F)CC3)ncnc12 [Example 3.38, 3-(3-fluoropyridin-4-yl)-N-(1-(7-methylthieno[3,2-d]pyrimidin-4-yl)piperidin-4-yl)propanamide]",> 20,> 20
"Cc1csc2c(N3CCC(NC(=O)CCc4cccc(F)c4)CC3)ncnc12 [Example 3.39, 3-(3-Fluorophenyl)-N-(1-(7-methylthieno[3,2-d]pyrimidin-4-yl)piperidin-4-yl)propanamide]",> 20,> 20
"Cc1csc2c(N3CCC(NCCCc4ccncc4F)CC3)ncnc12 [Example 3.40, N-(3-(3-Fluoropyridin-4-yl)propyl)-1-(7-methylthieno[3,2-d]pyrimidin-4-yl)piperidin-4-amine]",0.1 to 1,> 20
"Cc1csc2c(N3CCC(NCCCc4cccc(F)c4)CC3)ncnc12 [Example 3.41, N-(3-(3-Fluorophenyl)propyl)-1-(7-methylthieno[3,2-d]pyrimidin-4-yl)piperidin-4-amine]",0.1 to 1,> 20
"Cc1csc2c(N3CCC(NCc4ccc(F)cc4)CC3)ncnc12 [Example 3.42, N-(4-Fluorobenzyl)-1-(7-methylthieno[3,2-d]pyrimidin-4-yl)piperidin-4-amine]",1 to 20,> 20
"Cc1csc2c(N3CCC(NC(=O)Cc4ccc(F)cc4)CC3)ncnc12 [Example 3.43, 2-(4-Fluorophenyl)-N-(1-(7-methylthieno[3,2-d]pyrimidin-4-yl)piperidin-4-yl)acetamide]",1 to 20,> 20
"Cc1csc2c(N3CCC(NCCc4ccc(F)cc4)CC3)ncnc12 [Example 3.44, N-(4-Fluorophenethyl)-1-(7-methylthieno[3,2-d]pyrimidin-4-yl)piperidin-4-amine]",0.1 to 1,> 20
"Cc1csc2c(N3CCC(OCCCc4ccc(F)cc4)CC3)ncnc12 [Example 3.45, 4-(4-(3-(4-Fluorophenyl)propoxy)piperidin-1-yl)-7-methylthieno[3,2-d]pyrimidine]",> 20,> 20
"O=C(CCc1ccc(F)cc1)NC1CCN(c2ncnc3ccsc23)CC1 [Example 3.46, 3-(4-Fluorophenyl)-N-(1-(thieno[3,2-d]pyrimidin-4-yl)piperidin-4-yl)propanamide]",> 20,> 20
"Fc1ccc(CCCNC2CCN(c3ncnc4ccsc34)CC2)cc1 [Example 3.47, N-(3-(4-Fluorophenyl)propyl)-1-(thieno[3,2-d]pyrimidin-4-yl)piperidin-4-amine]",1 to 20,> 20
"O=C(CCc1ccc(F)cc1)NC1CCN(c2ncnc3c(I)csc23)CC1 [Example 3.48, 3-(4-Fluorophenyl)-N-(1-(7-iodothieno[3,2-d]pyrimidin-4-yl)piperidin-4-yl)propanamide]",0.1 to 1,> 20
"Cn1ncc2c(N3CCC(NCCCc4ccc(F)cc4)CC3)ncnc21 [Example 3.50, N-(3-(4-Fluorophenyl)propyl)-1-(1-methyl-1H-pyrazolo[3,4-d]pyrimidin-4-yl)piperidin-4-amine]",> 20,> 20
"COc1cc(CCCNC2CCN(c3ncnc4c(C)csc34)CC2)ccn1 [Example 3.51, N-(3-(2-Methoxypyridin-4-yl)propyl)-1-(7-methylthieno[3,2-d]pyrimidin-4-yl)piperidin-4-amine]",0.1 to 1,> 20
"Cc1nc(N2CCC(NCCCc3ccncc3)CC2)c2scc(C)c2n1 [Example 3.52, 1-(2,7-Dimethylthieno[3,2-d]pyrimidin-4-yl)-N-(3-(pyridin-4-yl)propyl)piperidin-4-amine]",> 20,> 20
"Cc1csc2c(N3CCC(NCCCc4ccncc4)CC3)nc(N3CCN(C)CC3)nc12 [Example 3.53, 1-(7-Methyl-2-(4-methylpiperazin-1-yl)thieno[3,2-d]pyrimidin-4-yl)-N-(3-(pyridin-4-yl)propyl)piperidin-4-amine]",> 20,> 20
"CCc1nc(N2CCC(NCCCc3ccncc3)CC2)c2scc(C)c2n1 [Example 3.54, 1-(2-Ethyl-7-methylthieno[3,2-d]pyrimidin-4-yl)-N-(3-(pyridin-4-yl)propyl)piperidin-4-amine]",> 20,> 20
"Cc1nc(N2CCC(NCCCc3ccc(F)cc3)CC2)c2cnn(C)c2n1 [Example 3.55, 1-(1,6-Dimethyl-1H-pyrazolo[3,4-d]pyrimidin-4-yl)-N-(3-(4-fluorophenyl)propyl)piperidin-4-amine]",> 20,> 20
"Cc1csc2c(N3CCC(NCCCc4ccncc4)CC3)nc(-c3ccccn3)nc12 [Example 3.56, 1-(7-Methyl-2-(pyridin-2-yl)thieno[3,2-d]pyrimidin-4-yl)-N-(3-(pyridin-4-yl)propyl)piperidin-4-amine]",> 20,> 20
"O=C(CCc1ccc(F)cc1)NC1CCN(c2ncnc3c(-c4ccccc4)csc23)CC1 [Example 3.57, 3-(4-Fluorophenyl)-N-(1-(7-phenylthieno[3,2-d]pyrimidin-4-yl)piperidin-4-yl)propanamide]",> 20,> 20
"Fc1ccc(CCCNC2CCN(c3ncnc4c(-c5ccccc5)csc34)CC2)cc1 [Example 3.58, N-(3-(4-Fluorophenyl)propyl)-1-(7-phenylthieno[3,2-d]pyrimidin-4-yl)piperidin-4-amine]",1 to 20,> 20
"Cc1nsc2c(N3CCC(NCCCc4ccc(F)cc4)CC3)ncnc12 [Example 3.59, N-(3-(4-Fluorophenyl)propyl)-1-(3-methylisothiazolo[4,5-d]pyrimidin-7-yl)piperidin-4-amine]",1 to 20,> 20
